Article PMC6019688 (Redox Biology, 2018)

Biological target: mitochondrial respiratory chain complex I (Homo sapiens, UniProt O75251+O75306+P03886)
Assay: spectrophotometric NADH:decylubiquinone oxidation in DU145 homogenate
Type: cell-based

Chain of mitochondrial respiratory chain complex I (P03886 whole entry): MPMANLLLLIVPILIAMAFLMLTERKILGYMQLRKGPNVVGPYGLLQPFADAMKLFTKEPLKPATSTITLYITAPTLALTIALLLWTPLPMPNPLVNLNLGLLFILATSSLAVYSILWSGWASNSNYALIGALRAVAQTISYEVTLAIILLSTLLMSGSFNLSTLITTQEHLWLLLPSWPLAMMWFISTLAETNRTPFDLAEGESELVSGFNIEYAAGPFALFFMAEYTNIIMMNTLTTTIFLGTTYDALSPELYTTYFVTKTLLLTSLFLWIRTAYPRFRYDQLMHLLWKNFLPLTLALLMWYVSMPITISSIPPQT
Chain of mitochondrial respiratory chain complex I (O75306 34-463): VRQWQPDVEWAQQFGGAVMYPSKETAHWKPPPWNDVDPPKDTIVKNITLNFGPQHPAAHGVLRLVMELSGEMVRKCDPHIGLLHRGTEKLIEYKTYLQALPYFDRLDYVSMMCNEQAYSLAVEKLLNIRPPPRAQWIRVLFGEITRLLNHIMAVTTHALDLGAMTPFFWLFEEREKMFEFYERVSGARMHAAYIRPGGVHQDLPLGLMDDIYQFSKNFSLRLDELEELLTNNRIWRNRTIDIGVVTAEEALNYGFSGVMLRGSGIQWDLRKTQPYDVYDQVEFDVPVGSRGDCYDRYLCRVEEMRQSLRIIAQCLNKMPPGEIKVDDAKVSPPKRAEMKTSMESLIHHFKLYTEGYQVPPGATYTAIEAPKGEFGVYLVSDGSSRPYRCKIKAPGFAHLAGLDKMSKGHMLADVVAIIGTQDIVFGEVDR
Chain of mitochondrial respiratory chain complex I (O75251 39-213): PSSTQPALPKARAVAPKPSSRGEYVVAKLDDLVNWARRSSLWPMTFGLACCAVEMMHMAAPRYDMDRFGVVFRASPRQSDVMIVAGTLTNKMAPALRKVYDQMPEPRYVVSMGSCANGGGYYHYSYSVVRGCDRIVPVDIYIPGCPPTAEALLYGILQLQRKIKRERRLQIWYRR

Compound: CCCCN1CCCC[C@H]1C(=O)Nc1c(C)cccc1C [levobupivacaine]
- Ki: 600 µM
